Publication PMC5341070, “Small molecule inhibitors block Gas6-inducible TAM activation and tumorigenicity” (Scientific Reports, 2017)

Experiments:
Experiment in all cases: biochemical
TIE2 = TIE2 (Homo sapiens, UniProt Q02763); set-up: gene TEK; KINOMEscan (DiscoverX) competition binding screen of 97 human kinases, percent of control at 10 uM
Protocol: (§1) The KINOMEscan profiling of the inhibitors were performed as per directions by the manufacturer (DiscoverX) against a panel of human protein kinases.

KIT(D816V) = KIT(D816V) (Homo sapiens, UniProt P10721, D816V); set-up: KINOMEscan (DiscoverX) competition binding screen of 97 human kinases, percent of control at 10 uM
Protocol: as §1

[1] = molecular target: T1, TYK2(JH1domain-catalytic) (Homo sapiens, UniProt P29597); set-up: KINOMEscan (DiscoverX) competition binding screen of 97 human kinases, percent of control at 10 uM
T1 construct: JH1domain-catalytic
Protocol: as §1

EGFR = EGFR (Homo sapiens, UniProt P00533); set-up: KINOMEscan (DiscoverX) competition binding screen of 97 human kinases, percent of control at 10 uM
Protocol: as §1

LKB1 = molecular target: T2, LKB1 (Homo sapiens, UniProt Q15831); set-up: KINOMEscan (DiscoverX) competition binding screen of 97 human kinases, percent of control at 10 uM
T2 construct: gene STK11
Protocol: as §1

PIM1 = PIM1 (Homo sapiens, UniProt P11309); set-up: KINOMEscan (DiscoverX) competition binding screen of 97 human kinases, percent of control at 10 uM
Protocol: as §1

ALK = ALK (Homo sapiens, UniProt Q9UM73); set-up: KINOMEscan (DiscoverX) competition binding screen of 97 human kinases, percent of control at 10 uM
Protocol: as §1

FAK = molecular target: T3, FAK (Homo sapiens, UniProt Q05397); set-up: KINOMEscan (DiscoverX) competition binding screen of 97 human kinases, percent of control at 10 uM
T3 construct: gene PTK2
Protocol: as §1

BRAF(V600E) = BRAF(V600E) (Homo sapiens, UniProt P15056, V600E); set-up: KINOMEscan (DiscoverX) competition binding screen of 97 human kinases, percent of control at 10 uM
Protocol: as §1

[2] = molecular target: T4, JAK2(JH1domain-catalytic) (Homo sapiens, UniProt O60674); set-up: KINOMEscan (DiscoverX) competition binding screen of 97 human kinases, percent of control at 10 uM
T4 construct: JH1domain-catalytic
Protocol: as §1

TRKA = molecular target: T5, TRKA (Homo sapiens, UniProt P04629); set-up: KINOMEscan (DiscoverX) competition binding screen of 97 human kinases, percent of control at 10 uM
T5 construct: gene NTRK1
Protocol: as §1

MKNK2 = MKNK2 (Homo sapiens, UniProt Q9HBH9); set-up: KINOMEscan (DiscoverX) competition binding screen of 97 human kinases, percent of control at 10 uM
Protocol: as §1

SRPK3 = SRPK3 (Homo sapiens, UniProt Q9UPE1); set-up: KINOMEscan (DiscoverX) competition binding screen of 97 human kinases, percent of control at 10 uM
Protocol: as §1

ADCK3 = molecular target: T6, ADCK3 (Homo sapiens, UniProt Q8NI60); set-up: KINOMEscan (DiscoverX) competition binding screen of 97 human kinases, percent of control at 10 uM
T6 construct: gene COQ8A
Protocol: as §1

PAK4 = PAK4 (Homo sapiens, UniProt O96013); set-up: KINOMEscan (DiscoverX) competition binding screen of 97 human kinases, percent of control at 10 uM
Protocol: as §1

YANK3 = molecular target: T7, YANK3 (Homo sapiens, UniProt Q86UX6); set-up: KINOMEscan (DiscoverX) competition binding screen of 97 human kinases, percent of control at 10 uM
T7 construct: gene STK32C
Protocol: as §1

TSSK1B = TSSK1B (Homo sapiens, UniProt Q9BXA7); set-up: KINOMEscan (DiscoverX) competition binding screen of 97 human kinases, percent of control at 10 uM
Protocol: as §1

MAPKAPK2 = MAPKAPK2 (Homo sapiens, UniProt P49137); set-up: KINOMEscan (DiscoverX) competition binding screen of 97 human kinases, percent of control at 10 uM
Protocol: as §1

p38-alpha = molecular target: T8, p38-alpha (Homo sapiens, UniProt Q16539); set-up: KINOMEscan (DiscoverX) competition binding screen of 97 human kinases, percent of control at 10 uM
T8 construct: gene MAPK14
Protocol: as §1

IGF1R = IGF1R (Homo sapiens, UniProt P08069); set-up: KINOMEscan (DiscoverX) competition binding screen of 97 human kinases, percent of control at 10 uM
Protocol: as §1

AURKA = AURKA (Homo sapiens, UniProt O14965); set-up: KINOMEscan (DiscoverX) competition binding screen of 97 human kinases, percent of control at 10 uM
Protocol: as §1

BRAF = BRAF (Homo sapiens, UniProt P15056); set-up: KINOMEscan (DiscoverX) competition binding screen of 97 human kinases, percent of control at 10 uM
Protocol: as §1

ERBB4 = ERBB4 (Homo sapiens, UniProt Q15303); set-up: KINOMEscan (DiscoverX) competition binding screen of 97 human kinases, percent of control at 10 uM
Protocol: as §1

[3] = read-out: R428 %Ctrl @ 10000nM, binding competition
[4] = binding competition, % of control, read-out: RU-301 %Ctrl @ 10000nM

T8 sequence (Q16539 whole entry): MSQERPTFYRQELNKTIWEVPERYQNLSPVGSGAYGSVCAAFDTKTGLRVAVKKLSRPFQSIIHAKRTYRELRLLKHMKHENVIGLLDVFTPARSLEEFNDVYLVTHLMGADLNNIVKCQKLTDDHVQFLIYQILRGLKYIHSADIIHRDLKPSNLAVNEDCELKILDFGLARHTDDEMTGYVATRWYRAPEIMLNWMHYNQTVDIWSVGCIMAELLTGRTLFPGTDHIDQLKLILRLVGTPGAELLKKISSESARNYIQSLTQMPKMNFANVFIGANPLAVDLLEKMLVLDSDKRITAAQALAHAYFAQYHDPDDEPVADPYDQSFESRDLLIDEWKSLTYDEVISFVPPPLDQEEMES
T6 sequence (Q8NI60 whole entry): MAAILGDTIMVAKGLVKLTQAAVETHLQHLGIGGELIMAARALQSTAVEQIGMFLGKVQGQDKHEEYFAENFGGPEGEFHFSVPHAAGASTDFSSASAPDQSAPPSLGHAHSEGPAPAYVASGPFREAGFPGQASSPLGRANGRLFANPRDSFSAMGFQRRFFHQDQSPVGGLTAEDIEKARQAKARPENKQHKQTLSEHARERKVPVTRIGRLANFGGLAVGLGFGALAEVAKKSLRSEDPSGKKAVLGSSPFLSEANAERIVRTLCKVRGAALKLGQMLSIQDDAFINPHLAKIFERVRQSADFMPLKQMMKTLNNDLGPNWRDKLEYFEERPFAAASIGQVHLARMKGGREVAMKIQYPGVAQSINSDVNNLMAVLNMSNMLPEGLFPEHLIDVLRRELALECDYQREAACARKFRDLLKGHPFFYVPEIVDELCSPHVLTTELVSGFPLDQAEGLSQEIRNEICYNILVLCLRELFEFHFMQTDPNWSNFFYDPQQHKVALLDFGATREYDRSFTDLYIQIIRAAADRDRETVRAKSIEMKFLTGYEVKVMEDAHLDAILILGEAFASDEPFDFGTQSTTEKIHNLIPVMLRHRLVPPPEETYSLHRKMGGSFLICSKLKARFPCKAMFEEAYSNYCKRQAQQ
Chain of PAK4 (O96013 whole entry): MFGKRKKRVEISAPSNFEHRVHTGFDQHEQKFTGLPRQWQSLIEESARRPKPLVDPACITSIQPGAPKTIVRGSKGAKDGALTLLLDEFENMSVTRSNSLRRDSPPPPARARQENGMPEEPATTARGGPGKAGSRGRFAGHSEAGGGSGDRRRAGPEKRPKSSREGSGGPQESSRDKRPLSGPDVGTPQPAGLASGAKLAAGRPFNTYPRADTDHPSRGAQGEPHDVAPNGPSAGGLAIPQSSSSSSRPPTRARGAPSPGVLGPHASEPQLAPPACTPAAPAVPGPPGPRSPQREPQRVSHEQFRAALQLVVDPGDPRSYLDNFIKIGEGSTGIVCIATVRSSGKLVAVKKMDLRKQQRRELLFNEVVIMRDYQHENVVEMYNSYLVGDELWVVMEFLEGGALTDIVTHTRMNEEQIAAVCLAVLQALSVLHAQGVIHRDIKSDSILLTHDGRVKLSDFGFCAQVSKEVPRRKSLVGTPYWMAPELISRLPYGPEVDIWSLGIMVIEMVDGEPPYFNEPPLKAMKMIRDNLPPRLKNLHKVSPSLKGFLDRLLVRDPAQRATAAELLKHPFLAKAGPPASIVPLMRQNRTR
Chain of TSSK1B (Q9BXA7 whole entry): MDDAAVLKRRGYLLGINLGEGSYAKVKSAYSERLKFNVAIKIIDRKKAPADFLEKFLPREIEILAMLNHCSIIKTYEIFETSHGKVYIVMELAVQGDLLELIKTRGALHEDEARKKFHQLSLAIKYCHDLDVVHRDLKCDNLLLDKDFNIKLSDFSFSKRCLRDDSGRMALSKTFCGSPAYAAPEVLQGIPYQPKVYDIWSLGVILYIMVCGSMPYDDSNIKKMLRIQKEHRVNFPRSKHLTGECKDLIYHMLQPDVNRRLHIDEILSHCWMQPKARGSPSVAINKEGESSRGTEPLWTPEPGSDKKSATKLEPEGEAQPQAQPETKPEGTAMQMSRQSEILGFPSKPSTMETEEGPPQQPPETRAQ
Chain of SRPK3 (Q9UPE1 whole entry): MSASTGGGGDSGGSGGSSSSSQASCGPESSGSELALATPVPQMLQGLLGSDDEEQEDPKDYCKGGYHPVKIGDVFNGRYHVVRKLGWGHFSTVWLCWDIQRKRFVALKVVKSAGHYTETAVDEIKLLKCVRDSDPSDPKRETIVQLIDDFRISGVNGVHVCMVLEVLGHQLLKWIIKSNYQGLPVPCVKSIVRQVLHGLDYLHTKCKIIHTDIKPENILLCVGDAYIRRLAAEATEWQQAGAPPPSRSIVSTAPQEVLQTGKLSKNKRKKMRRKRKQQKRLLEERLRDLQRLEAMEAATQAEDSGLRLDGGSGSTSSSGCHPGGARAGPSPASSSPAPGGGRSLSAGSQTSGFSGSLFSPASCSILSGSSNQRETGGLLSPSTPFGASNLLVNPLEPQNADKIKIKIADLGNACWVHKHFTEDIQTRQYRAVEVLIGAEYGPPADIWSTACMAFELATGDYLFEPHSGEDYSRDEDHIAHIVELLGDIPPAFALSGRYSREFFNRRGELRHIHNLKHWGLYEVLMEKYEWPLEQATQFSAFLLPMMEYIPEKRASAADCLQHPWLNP
Chain of EGFR (P00533 whole entry): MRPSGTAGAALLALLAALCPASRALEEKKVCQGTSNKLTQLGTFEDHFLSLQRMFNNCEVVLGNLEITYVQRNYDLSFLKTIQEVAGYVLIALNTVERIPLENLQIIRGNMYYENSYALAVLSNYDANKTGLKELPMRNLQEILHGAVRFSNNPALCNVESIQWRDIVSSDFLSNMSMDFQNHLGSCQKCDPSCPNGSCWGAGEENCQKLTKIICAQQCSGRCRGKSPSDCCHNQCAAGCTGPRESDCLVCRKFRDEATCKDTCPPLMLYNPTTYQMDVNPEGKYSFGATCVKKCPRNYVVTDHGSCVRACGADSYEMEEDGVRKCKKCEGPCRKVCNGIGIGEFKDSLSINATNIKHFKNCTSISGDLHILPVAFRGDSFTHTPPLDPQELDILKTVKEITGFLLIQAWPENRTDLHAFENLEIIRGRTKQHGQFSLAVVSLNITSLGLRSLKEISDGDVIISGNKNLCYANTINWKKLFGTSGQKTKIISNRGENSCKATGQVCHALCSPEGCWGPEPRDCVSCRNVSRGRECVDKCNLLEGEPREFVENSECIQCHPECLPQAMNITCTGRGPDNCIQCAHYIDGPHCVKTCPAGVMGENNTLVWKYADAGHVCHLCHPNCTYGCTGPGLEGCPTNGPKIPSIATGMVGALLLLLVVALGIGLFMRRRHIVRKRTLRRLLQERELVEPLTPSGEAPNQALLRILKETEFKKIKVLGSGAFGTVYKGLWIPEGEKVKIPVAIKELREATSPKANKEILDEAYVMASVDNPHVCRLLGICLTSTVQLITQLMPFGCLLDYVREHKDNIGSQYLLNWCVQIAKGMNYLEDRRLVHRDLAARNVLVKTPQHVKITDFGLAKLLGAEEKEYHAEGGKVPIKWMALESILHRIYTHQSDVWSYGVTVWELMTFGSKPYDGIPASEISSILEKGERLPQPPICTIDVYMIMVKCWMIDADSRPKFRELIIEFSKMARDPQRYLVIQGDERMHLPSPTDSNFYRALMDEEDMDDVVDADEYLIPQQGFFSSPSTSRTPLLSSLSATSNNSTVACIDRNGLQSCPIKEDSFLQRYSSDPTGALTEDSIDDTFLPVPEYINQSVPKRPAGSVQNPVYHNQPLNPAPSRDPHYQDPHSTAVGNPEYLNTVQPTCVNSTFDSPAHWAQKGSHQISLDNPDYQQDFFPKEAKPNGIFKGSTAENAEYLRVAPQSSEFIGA
Chain of KIT(D816V) (P10721 whole entry D816V): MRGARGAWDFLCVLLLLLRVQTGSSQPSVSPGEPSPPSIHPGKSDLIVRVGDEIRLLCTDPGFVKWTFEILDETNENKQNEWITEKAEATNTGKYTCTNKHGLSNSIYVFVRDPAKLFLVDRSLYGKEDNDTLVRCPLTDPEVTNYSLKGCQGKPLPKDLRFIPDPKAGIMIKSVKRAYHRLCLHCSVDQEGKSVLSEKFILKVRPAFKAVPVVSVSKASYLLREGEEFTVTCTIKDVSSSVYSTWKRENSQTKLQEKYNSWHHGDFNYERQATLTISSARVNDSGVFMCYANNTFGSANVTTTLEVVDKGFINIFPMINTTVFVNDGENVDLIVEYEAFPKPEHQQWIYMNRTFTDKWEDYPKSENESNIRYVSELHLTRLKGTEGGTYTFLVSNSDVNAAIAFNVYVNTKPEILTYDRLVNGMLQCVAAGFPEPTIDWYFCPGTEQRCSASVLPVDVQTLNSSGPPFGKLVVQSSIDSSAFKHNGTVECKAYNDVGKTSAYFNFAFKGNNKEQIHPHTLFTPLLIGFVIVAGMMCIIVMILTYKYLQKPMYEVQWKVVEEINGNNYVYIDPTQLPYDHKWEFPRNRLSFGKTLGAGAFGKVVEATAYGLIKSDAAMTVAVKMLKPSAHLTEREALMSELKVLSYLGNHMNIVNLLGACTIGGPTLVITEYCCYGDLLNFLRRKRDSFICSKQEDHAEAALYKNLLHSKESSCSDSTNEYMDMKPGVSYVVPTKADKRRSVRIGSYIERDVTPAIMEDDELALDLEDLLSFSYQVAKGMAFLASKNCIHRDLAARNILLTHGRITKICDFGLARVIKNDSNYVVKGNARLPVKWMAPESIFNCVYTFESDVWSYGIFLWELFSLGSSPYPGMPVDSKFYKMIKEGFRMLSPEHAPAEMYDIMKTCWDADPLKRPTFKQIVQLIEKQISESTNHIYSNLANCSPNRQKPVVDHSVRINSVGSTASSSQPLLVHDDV
Chain of PIM1 (P11309 whole entry): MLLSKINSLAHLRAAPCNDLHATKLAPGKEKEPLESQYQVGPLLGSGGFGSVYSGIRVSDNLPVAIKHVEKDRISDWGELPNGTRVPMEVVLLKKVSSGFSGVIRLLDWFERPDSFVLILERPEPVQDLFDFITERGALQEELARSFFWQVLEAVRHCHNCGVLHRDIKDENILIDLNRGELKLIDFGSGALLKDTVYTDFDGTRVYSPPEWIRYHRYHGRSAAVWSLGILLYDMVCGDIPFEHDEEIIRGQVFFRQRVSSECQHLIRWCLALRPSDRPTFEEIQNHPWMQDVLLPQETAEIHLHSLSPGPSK

Nc1nc(Nc2ccc3c(c2)CC[C@@H](N2CCCC2)CC3)nn1-c1cc2c(nn1)-c1ccccc1CCC2 [R428]
percent of control binding at 10 µM (TIE2; [3]): 0.45%
percent of control binding at 10 µM (KIT(D816V); [3]): 0.15%
percent of control binding at 10 µM [1, 3]: 17%
percent of control binding at 10 µM (EGFR; [3]): 74%
percent of control binding at 10 µM (LKB1; [3]): 60%
percent of control binding at 10 µM (PIM1; [3]): 67%
percent of control binding at 10 µM (ALK; [3]): 60%
percent of control binding at 10 µM (FAK; [3]): 83%
percent of control binding at 10 µM (BRAF(V600E); [3]): 70%
percent of control binding at 10 µM [2, 3]: 0%
percent of control binding at 10 µM (TRKA; [3]): 3.9%
percent of control binding at 10 µM (MKNK2; [3]): 0%
percent of control binding at 10 µM (SRPK3; [3]): 3.8%
percent of control binding at 10 µM (ADCK3; [3]): 18%
percent of control binding at 10 µM (PAK4; [3]): 85%
percent of control binding at 10 µM (YANK3; [3]): 100%
percent of control binding at 10 µM (TSSK1B; [3]): 22%
percent of control binding at 10 µM (MAPKAPK2; [3]): 87%
percent of control binding at 10 µM (p38-alpha; [3]): 78%
percent of control binding at 10 µM (IGF1R; [3]): 99%
percent of control binding at 10 µM (AURKA; [3]): 0.15%
percent of control binding at 10 µM (BRAF; [3]): 64%
percent of control binding at 10 µM (ERBB4; [3]): 34%

Cc1cc(CSc2ccccc2C(=O)NCCNc2ccc(C(F)(F)F)cc2[N+](=O)[O-])on1 [RU-301]
remaining binding at 10 µM (TIE2; [4]): 100%
remaining binding at 10 µM (KIT(D816V); [4]): 100%
remaining binding at 10 µM [1, 4]: 55%
remaining binding at 10 µM (EGFR; [4]): 100%
remaining binding at 10 µM (LKB1; [4]): 77%
remaining binding at 10 µM (PIM1; [4]): 82%
remaining binding at 10 µM (ALK; [4]): 100%
remaining binding at 10 µM (FAK; [4]): 100%
remaining binding at 10 µM (BRAF(V600E); [4]): 94%
remaining binding at 10 µM [2, 4]: 87%
remaining binding at 10 µM (TRKA; [4]): 100%
remaining binding at 10 µM (MKNK2; [4]): 100%
remaining binding at 10 µM (SRPK3; [4]): 80%
remaining binding at 10 µM (ADCK3; [4]): 76%
remaining binding at 10 µM (PAK4; [4]): 93%
remaining binding at 10 µM (YANK3; [4]): 100%
remaining binding at 10 µM (TSSK1B; [4]): 78%
remaining binding at 10 µM (MAPKAPK2; [4]): 100%
remaining binding at 10 µM (p38-alpha; [4]): 93%
remaining binding at 10 µM (IGF1R; [4]): 98%
remaining binding at 10 µM (AURKA; [4]): 89%
remaining binding at 10 µM (BRAF; [4]): 99%
remaining binding at 10 µM (ERBB4; [4]): 83%
